Activity calls are given as the source filed them.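 How the source made its calls: active means a rising curve with AC50 no higher than ten times the top valid dose of that compound; inconclusive means flat curve between 30 and 70 percent, or failed fit; inactive means the rest.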
Tests used:
[1] = system: INS-1E cytokine-induced apoptosis, JC-1 mitochondrial potential, 48 h; assay: INS-1E mitochondrial potential loss inhibitors – cell-based, JC-1 fluorescence, dry powder, set 2, dose response (AID 488867)
[2] = as above; conditions: INS-1E cytokine-induced apoptosis, JC-1 mitochondrial potential, 48 h

Structure (SMILES)	protection from cytokine-induced depolarization ([2]; at 26 µM (top of the series))	further results
COc1ccc(S(=O)(=O)N(C)C[C@@H]2Oc3c(NC(=O)Nc4cccc5ccccc45)cccc3C(=O)N([C@H](C)CO)C[C@H]2C)cc1	–	AC50 [1]: > 23.5 µM (inactive)
COc1ccc(S(=O)(=O)N(C)C[C@@H]2Oc3c(NC(=O)c4cnccn4)cccc3C(=O)N([C@@H](C)CO)C[C@H]2C)cc1	-9.35% (inactive)	–
COc1ccc(S(=O)(=O)N(C)C[C@@H]2Oc3c(NS(C)(=O)=O)cccc3C(=O)N([C@@H](C)CO)C[C@H]2C)cc1	-7.47% (inactive)	–
C[C@@H]1CN([C@H](C)CO)C(=O)c2cccc(NC(=O)Nc3ccccc3)c2O[C@H]1CN(C)S(=O)(=O)c1ccc(F)cc1	4.78% (inactive)	–
Cc1ccc(S(=O)(=O)N(C)C[C@@H]2Oc3c(NC(=O)Nc4ccccc4)cccc3C(=O)N([C@H](C)CO)C[C@H]2C)cc1	11.2% (inactive)	–
COc1ccc(NC(=O)N(C)C[C@@H]2Oc3c(NC(=O)Nc4cccc5ccccc45)cccc3C(=O)N([C@@H](C)CO)C[C@H]2C)cc1	0.86% (inactive)	–
COc1ccc(S(=O)(=O)N(C)C[C@@H]2Oc3c(NS(=O)(=O)c4ccc(C)cc4)cccc3C(=O)N([C@@H](C)CO)C[C@H]2C)cc1	–	protection from cytokine-induced depolarization ([2]; at 23.5 µM (top of the series)): -2.55% (inactive)
N#Cc1ccc2cc(Br)c(C(F)(F)P(=O)(O)O)cc2c1	-2.22% (inactive)	–
COc1cccc(S(=O)(=O)N(C)C[C@@H]2Oc3c(NC(=O)Nc4cccc5ccccc45)cccc3C(=O)N([C@@H](C)CO)C[C@H]2C)c1	5.29% (inactive)	–
C[C@@H]1CN([C@@H](C)CO)C(=O)c2cccc(NC(=O)Nc3ccc(F)cc3)c2O[C@H]1CN(C)S(=O)(=O)c1ccc(Cl)cc1	8.02% (inactive)	–
C[C@@H]1CN([C@@H](C)CO)C(=O)c2cccc(NC(=O)Nc3cccc4ccccc34)c2O[C@H]1CN(C)S(C)(=O)=O	2.48% (inactive)	–
COc1ccc(S(=O)(=O)N(C)C[C@@H]2Oc3c(NS(=O)(=O)c4ccc(F)cc4)cccc3C(=O)N([C@@H](C)CO)C[C@H]2C)cc1	-3.26% (inactive)	–
COc1ccc(S(=O)(=O)N(C)C[C@@H]2Oc3c(NC(=O)Nc4ccccc4)cccc3C(=O)N([C@H](C)CO)C[C@H]2C)cc1	–	AC50 [1]: > 26 µM (inactive)
Cc1ccc(S(=O)(=O)N(C)C[C@@H]2Oc3c(NC(=O)Nc4cccc5ccccc45)cccc3C(=O)N([C@H](C)CO)C[C@H]2C)cc1	–	protection from cytokine-induced depolarization ([2]; at 23.5 µM (top of the series)): 7.94% (inactive)
COc1ccc(S(=O)(=O)N(C)C[C@@H]2Oc3c(NC(=O)Nc4ccc(C(F)(F)F)cc4)cccc3C(=O)N([C@@H](C)CO)C[C@H]2C)cc1	-7.36% (inactive)	–
C[C@@H]1CN([C@@H](C)CO)C(=O)c2cccc(NS(=O)(=O)c3ccccc3)c2O[C@H]1CN(C)Cc1ccc(C(F)(F)F)cc1	-2.49% (inactive)	–
C[C@@H]1CN([C@@H](C)CO)C(=O)c2cccc(NC(=O)Nc3cccc4ccccc34)c2O[C@H]1CN(C)C(=O)Nc1ccccc1	–	protection from cytokine-induced depolarization ([2]; at 23.5 µM (top of the series)): 2.8% (inactive)

Structure (SMILES)	protection from cytokine-induced depolarization ([2]; at 26 µM (top of the series))	further results
C[C@@H]1CN([C@@H](C)CO)C(=O)c2cccc(NC(=O)Nc3cccc4ccccc34)c2O[C@H]1CN(C)S(=O)(=O)c1ccccc1F	-16.5% (inactive)	–
COc1ccc(S(=O)(=O)N(C)C[C@@H]2Oc3c(NC(=O)c4nc5ccccc5s4)cccc3C(=O)N([C@@H](C)CO)C[C@H]2C)cc1	-8.58% (inactive)	–
COc1ccc(S(=O)(=O)N(C)C[C@@H]2Oc3c(NC(=O)Nc4cccc5ccccc45)cccc3C(=O)N([C@@H](C)CO)C[C@H]2C)cc1Cl	-12% (inactive)	–
COc1ccc(NC(=O)Nc2cccc3c2O[C@@H](CN(C)S(=O)(=O)c2ccc(OC)cc2)[C@H](C)CN([C@@H](C)CO)C3=O)cc1	0.556% (inactive)	–
C[C@@H]1CN([C@@H](C)CO)C(=O)c2cccc(NC(=O)Nc3cccc(Cl)c3Cl)c2O[C@H]1CN(C)S(=O)(=O)c1ccc2c(c1)OCCO2	8.05% (inactive)	–
COc1ccc(S(=O)(=O)N(C)C[C@@H]2Oc3c(NS(=O)(=O)c4ccccc4)cccc3C(=O)N([C@@H](C)CO)C[C@H]2C)cc1	-2.15% (inactive)	–
Cc1ccc(S(=O)(=O)N(C)C[C@@H]2Oc3c(NC(=O)Nc4ccccc4)cccc3C(=O)N([C@@H](C)CO)C[C@H]2C)cc1	–	AC50 [1]: > 26 µM (inactive)
COc1ccc(S(=O)(=O)N(C)C[C@@H]2Oc3c(NC(=O)Nc4cccc5ccccc45)cccc3C(=O)N(C(C)C)C[C@H]2C)cc1	36.6% (inactive)	–
C[C@@H]1CN([C@@H](C)CO)C(=O)c2cccc(NC(=O)Nc3cccc4ccccc34)c2O[C@H]1CN(C)C(=O)NC1CCCCC1	-6.42% (inactive)	–
COc1ccc(S(=O)(=O)N(C)C[C@@H]2Oc3c(NC(=O)Nc4cccc5ccccc45)cccc3C(=O)N([C@H](C)CO)C[C@@H]2C)cc1	-2.94% (inactive)	–
COc1ccc(S(=O)(=O)N(C)C[C@H]2Oc3c(NC(=O)Nc4cccc5ccccc45)cccc3C(=O)N([C@@H](C)CO)C[C@@H]2C)cc1	–	AC50 [1]: > 26 µM (inactive)
C[C@@H]1CN([C@@H](C)CO)C(=O)c2cccc(NC(=O)Nc3cccc4ccccc34)c2O[C@H]1CN(C)C(=O)Nc1ccc2c(c1)OCO2	-3.61% (inactive)	–
COc1ccc(S(=O)(=O)N(C)C[C@@H]2Oc3c(NC(=O)Nc4cccc5ccccc45)cccc3C(=O)N([C@@H](C)CO)C[C@H]2C)c(OC)c1	11.3% (inactive)	–
C[C@@H]1CN([C@@H](C)CO)C(=O)c2cccc(NC(=O)Nc3ccccc3)c2O[C@H]1CN(C)S(=O)(=O)c1ccc(F)cc1	7.91% (inactive)	–
C[C@@H]1CN([C@@H](C)CO)C(=O)c2cccc(NC(=O)Nc3ccc(F)cc3)c2O[C@H]1CN(C)S(=O)(=O)c1ccc(F)cc1	11.7% (inactive)	–
COc1ccc(S(=O)(=O)N(C)C[C@@H]2Oc3c(NC(=O)c4cc(C)nn4C)cccc3C(=O)N([C@@H](C)CO)C[C@H]2C)cc1	1.8% (inactive)	–
COc1ccc(S(=O)(=O)N(C)C[C@@H]2Oc3c(NC(=O)Nc4ccc(F)cc4)cccc3C(=O)N([C@H](C)CO)C[C@H]2C)cc1	10.8% (inactive)	–

From PubChem BioAssay AID488867 (Broad Institute, 2010)
